What is called GI50 is the concentration that inhibits growth by half.

This is an account of results in ChEMBL document CHEMBL1201862, “PubChem BioAssay data set” (2004).

Some test systems named below: CAKI-1; CCRF-CEM; COLO 205; DU-145; HCC 2998; HT-29; Hs-578T; M14; OVCAR-3; OVCAR-4; RPMI-8226; RXF 393; SF-295; SK-MEL-5; SN12C; SNB-19; SR; SW-620; UACC-62; UO-31.
What all share (experiment): DTP human tumour cell line panel, 48 h

SMILES strings stand for the structures.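 These data come from cells grown in 96-well plates and exposed to compound for 48 hours at five concentrations. GI50 is the concentration that inhibits growth by half.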 Activity calls are given as the source filed them. No stated cut-off is given here; in the data, active = GI50 up to about 1.1 µM and inactive = higher.

Regarding `CC(=O)Nc1ccc2c3c(cc(O)c2c1)N(C(=O)CCCCCC(=O)Nc1ccc2c4c(cc(O)c2c1)N(C(=O)OC(C)(C)C)CC4CCl)CC3CCl` (stereo not given), the GI50 with CAKI-1 is > 100000 nM (inactive); in the assay on CCRF-CEM, 99.5 nM (active); with COLO 205, 1990 nM (inactive); with DU-145, 463 nM (active); with HCC 2998, 1420 nM (inactive); in the assay on HT-29, 3150 nM (inactive). Further, the GI50 with Hs-578T was 3940 nM (inactive); in the assay on M14 it was 4090 nM (inactive); in the assay on OVCAR-3 it was 1570 nM (inactive); in the assay with OVCAR-4, 5360 nM (inactive); with RPMI-8226, 3370 nM (inactive); in the assay on RXF 393 it was 1240 nM (inactive). Also, the GI50 with SF-295 was 5730 nM (inactive); in the assay on SK-MEL-5, 1330 nM (inactive); in the assay on SN12C, 3450 nM (inactive); in the assay on SNB-19, 1600 nM (inactive); with SR, 118 nM (active); in the assay on SW-620, 2170 nM (inactive). Moreover, the values for the GI50 in the assay on UACC-62 and with UO-31 were 1390 nM (inactive) and > 100000 nM (inactive), respectively.
